Assay results reported in patent US7893284B2 (Sterix Limited, priority 2004, dated 2011).

What was measured:
[1] = tested on: PC3 Prostate Cancer Cells; experiment: Cell proliferation IC50, PC3; type: cell-based
Procedure: (§1) The effect of drugs on the proliferation of cells was measured using a microtiter plate assay (Cell Titer 96 proliferation assay, Promega, Hampshire, UK).

[2] = tested on: MDA MB 231 Cells; experiment: Inhibition of glucose uptake, MDA MB 231; type: cell-based; details: 15 min, 2-deoxy-D-[1-3H]glucose
Procedure: To measure the inhibition of glucose uptake into cells, cells were plated into 12-well multi-well plates and grown to confluence. Cells were washed with phosphate-buffered saline (PBS) and incubated for 15 min in incubation buffer containing 1 μCi 2-deoxy-D-[1-^3H]glucose (NEN-Dupont, UK) per well in the absence or presence of potential inhibitors (0.1-10 μM). Uptake was terminated by washing the cells in cold (4° C.) PBS. The cells were solubilized in. Triton-X in 0.01M sodium hydroxide and processed for liquid scintillation counting (Singh et al., Molecular and Cellular Endocrinology, 160: 61-66, 2000).

[3] = tested on: A2780 Ovarian Cancer Cells; experiment: Cell cycle arrest and annexin V FACs analysis, A2780; type: cell-based; details: 1 μM, FIG. 12
Text: For controls, there is no cell surface expression as indicated by a lack of a peak in the M2 region.

[4] = tested on: MCF-7 Breast Cancer Cells; experiment: Flow cytometric cell cycle analysis, MCF-7; type: cell-based; details: 500 nM; for G2/M arrest (cells in G2/M): 8 h, control 16%; for cells G2/M arrested: control 28%
Procedure: Flow cytometric cell cycle analysis was performed on 40% confluent populations of MCF-7s with 500 nM of compound.

[5] = tested on: A2780 Ovarian Cancer Cells; experiment: Clonogenicity in A2780 Ovarian Cancer Cells; type: cell-based
Text: Clonogenicity in A2780 Ovarian Cancer Cells

[6] = tested on: A2780 Ovarian Cancer Cells; experiment: Cell proliferation IC50, A2780; type: cell-based; details: Homo sapiens
Procedure: as §1

[7] = tested on: Tubulin; experiment: Inhibition of taxol-induced microtubule polymerization (turbidity at 350 nm); type: biochemical; details: 20 μM, tubulin 1 mg/ml, FIG. 3
Procedure: The ability of drugs to inhibit taxol-induced polymerisation of tubulin was measured by turbidity at 350 nm. Tubulin (Cryoskeleton Inc., Denver, Colo.), at a final concentration of 1 mg/ml was incubated at 32° C. in G-PEM buffer [80 mM piperazine-N,N′-bis (2-ethane sulfonic acid) sequisodium salt, 1 mM MgCl2, 1 mM EGTA and 1 mM GTP (pH 6.8)] in the presence of taxol with or without estrone derivatives [20 μM].
STX641 is thought to act as an anti-microtubule agent, i.e. to disrupt microtubule function. To show this, tubulin was incubated in the presence of taxol (a compound known to promote tubulin polymerisation). Taxol induced efficient in vitro microtubule assembly as reflected in the increase in turbidity as measured at 350 nm.

[8] = tested on: Human Umbilical Vein Cells; experiment: 96 well plate MTS proliferation assay, Human Umbilical Vein Cells; type: cell-based; details: read-out: mean inhibition of three wells +/-Sds
Text: Human Umbilical Vein Cells; 96 well plate MTS proliferation assay, mean inhibition of three wells +/−Sds.

[9] = tested on: Human Dermal Fibroblasts; experiment: 96 well plate MTS proliferation assay, Human Dermal Fibroblasts; type: cell-based; details: Fibroblast, read-out: mean inhibition of three wells +/-Sds
Text: Human Dermal Fibroblasts; 96 well plate MTS proliferation assay, mean inhibition of three wells +/−Sds.

| SMILES | IC50 [1] [µM] | % Inhibition of Glucose Uptake MDA MB 231 Cells [2] [%] | G2/M arrest (cells in G2/M) [4] [%] | cells G2/M arrested ([4]; 24 h) [%] | apoptotic sub-G1 population ([4]; 48 h) | % clonogenicity (relative to untreated cells) ([5]; 0.25 μM) [%] | % clonogenicity (relative to untreated cells) ([5]; 1 μM) [%] | IC50 [6] [µM] | further results |
| --- | --- | --- | --- | --- | --- | --- | --- | --- | --- |
| COc1cc2c(cc1OS(N)(=O)=O)CCC1C2CC[C@@]2(C)C1CC[C@@H]2CC#N (stereo in doubt) [Compound 33, Sulfamic acid 17-cyanomethyl-2-methoxy-13-methyl-7,8,9,11,12,13,14,15,16,17-decahydro-6H-cyclopenta[a]phenanthren-3-yl ester] | 0.05 | 60 | 27 | 68 | no significant increase | 0.24 | 0.00 | 0.09 | G2/M arrest ([3]; 24 hours): G2/M arrest; annexin V staining (apoptotic marker), FACs [3]: marked increase in staining; S-phase population ([4]; 24 h, decrease from 30%): 9%; G1 population ([4]; 24 h, decrease from 37%): 15%; G2/M arrest ([4]; 48 h): still G2/M-arrested; inhibition of taxol-induced polymerisation of tubulin [7]: effectively blocked tubulin assembly |
| COc1cc2c(cc1OS(N)(=O)=O)CCC1C2CC[C@@]2(C)C1CC[C@@H]2OS(N)(=O)=O (stereo partly shown) [STX 140, reference compound] | 0.27 | 77 | 27 | 28 | increasing population of sub-G1 cells | 64.42 | 0.04 | 0.28 | sub-G1 population (indicative of apoptosis) ([4]; 24 h, control 2%): 36%; inhibition at 0.05 µM ([8]; 0.05 μM): 7%; inhibition at 0.1 µM ([8]; 0.10 μM): 18%; inhibition at 1 µM ([8]; 1.00 μM): 59%; inhibition at 5 µM ([8]; 5.00 μM): 49%; inhibition at 0.05 µM ([9]; 0.05 μM): 0%; inhibition at 0.1 µM ([9]; 0.10 μM): 2%; inhibition at 1 µM ([9]; 1.00 μM): 9%; inhibition at 5 µM ([9]; 5.00 μM): 18% |
